This is an account of results in article PMC12097015, “Development of MDM2‐Targeting PROTAC for Advancing Bone Regeneration” (Advanced Science, 2025).

Where two headings read alike, the source gives them in different places.

Data set [1] in a line: Pharmacokinetic study in BALB/c mice. The class given is in vivo. The conditions noted are these: mouse, plasma; for MRT last: read-out: MRT0–t; for MRT inf: read-out: MRT0–∞. The procedure:
Pharmacokinetic (PK) studies of CL144 were conducted by Medicilon Preclinical Research (Shanghai) LLC. Six BALB/c mice were divided into two groups, and CL144 was administered by tail vein injection (iv; 1.0 mg kg^−1) or gavage (po; 10 mg kg^−1). Blood samples were collected from the submandibular vein at 0.083, 0.25, 0.5, 1, 4, and 24 h for the iv group and at 0.25, 0.5, 1, 3, 6, and 24 h for the po group. Blood samples were centrifuged at 6800 x g for 6 min at 2–8 °C within 1 h after collection and stored at ≈−80 °C. Plasma samples were analyzed by LC‐MS/MS (TQ6500+), and PK parameters were calculated using the FDA‐certified pharmacokinetic program Phoenix WinNonlin 7.0 (Pharsight, USA).

For data set [2], the target named is T1, MDM2 (Homo sapiens, UniProt Q00987). Description: Immunoprecipitation of MDM2 ubiquitination in HeLa cells overexpressing MDM2 and HA-tagged ubiquitin. The class given is cell-based. Also on record: host or cells: HeLa. The conditions noted are these: 10 µM, within 60 min. The procedure:
HeLa cells were cultured in DMEM (Welgene, LM001‐05) supplemented with 10% FBS (Welgene, S001‐07). For transient transfection, the cells were seeded at ≈70% confluence. The following day, transfection was performed using Lipofectamine 3000 (Invitrogen, L3000015) for 24 h according to the manufacturer's protocol. The cells were transfected with 100 ng of EGFP‐MDM2 per well in the 96‐well plate and were transfected with 2 µg of MDM2 WT and 2 µg of HA‐ubiquitin, total 4 µg per well in the 6‐well plate.
Hela cells (passage. 5) 7 × 10^5 cells well^−1 were seeded in a 6‐well plate and allowed to adhere overnight (o/n). The next day, WT MDM2 and HA‐ubiquitin plasmid transfection was performed using Lipofectamine 3000 for 24 h, according to the manufacturer's instructions. After transfection for 24 h, cells were treated with CL144 for different time intervals, including 15, 30, and 60 min. After drug treatment, the cells were lysed using immunoprecipitation (IP) lysis buffer (ThermoFisher, 87788) supplemented with a protease inhibitor cocktail (PIC). The cell lysates were harvested for subsequent experiments. The cell lysate was incubated with a HA‐tag primary antibody (1′Ab) at 4 °C overnight to capture the target protein complexes. The next day, the antibody–protein complexes were bound to the beads for 1 h. The beads were washed three times with IP lysis buffer to remove nonspecific binding. […]
Target sequence in this assay (Q00987 whole entry): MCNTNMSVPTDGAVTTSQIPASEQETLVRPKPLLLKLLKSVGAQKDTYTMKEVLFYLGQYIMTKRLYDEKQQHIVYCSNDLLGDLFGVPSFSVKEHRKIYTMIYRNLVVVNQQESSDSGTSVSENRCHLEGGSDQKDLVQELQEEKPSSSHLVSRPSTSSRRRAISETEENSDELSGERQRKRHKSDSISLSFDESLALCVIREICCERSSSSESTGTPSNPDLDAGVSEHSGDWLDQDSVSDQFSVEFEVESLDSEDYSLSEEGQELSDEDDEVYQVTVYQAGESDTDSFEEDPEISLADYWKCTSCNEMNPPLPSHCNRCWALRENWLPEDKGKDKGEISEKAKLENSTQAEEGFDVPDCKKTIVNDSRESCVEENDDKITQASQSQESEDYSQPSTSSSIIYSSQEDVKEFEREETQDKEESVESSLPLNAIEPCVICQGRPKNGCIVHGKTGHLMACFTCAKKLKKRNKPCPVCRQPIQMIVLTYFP

For another data set, the system named is hBMSCs. The data set is described as follows: Alizarin Red S (ARS) staining of hBMSCs under osteogenic differentiation. The class given is cell-based, human. The conditions noted are these: osteogenic differentiation conditions. The procedure: To induce osteogenic differentiation, the cells were seeded in confluent plates and cultured in osteogenic induction medium the following day. The differentiation medium was prepared by adding 10 mM β‐glycerophosphate (Sigma‐Aldrich, G9422), 50 µM ascorbic acid (Sigma‐Aldrich, A4403), and 0.1 µM dexamethasone (Sigma‐Aldrich, D4902) to the culture medium. The cells were treated with MDM2 inhibitors, Nutlin‐3 (Sigma‐Aldrich, N6787) or CL144 in an osteoinductive medium and incubated for 10–14 days to induce osteogenic differentiation. The differentiation medium was changed every 2–3 days (The list of MDM2 inhibitors used is shown in Figure 1A and presented in Table S1, Supporting Information).
Following osteogenic differentiation for the indicated number of days, the cells were fixed in 70% ethanol for 3 min at room temperature or in 4% PFA (Tech & Innovation, BPP‐9004) for 30 min at room temperature, washed with distilled water, and stained with 2% Alizarin Red S (Sigma‐Aldrich; pH 4.2, A5533) for 30 min.

Data set [3] has as its target T1, MDM2. Description: Microscale thermophoresis (MST) binding assay. The conditions noted are these: His-Tag MDM2, n = 3, read-out: dissociation constant (Kd). More on the design: made in house; host or cells: E. coli BL21 (DE3). (Microscale thermophoresis detects binding through changes in fluorescence in a small temperature gradient.)
Target sequence in this assay (Q00987 whole entry, species assumed): as the sequence (Q00987 whole entry) above
Procedure: E. coli BL21 (DE3) competent cells transformed with pSPEL870 were used to express MDM2 protein.^[ [27] ^] The recombinant strain was cultured in 500 mL 2XYT at 37 °C until the optical density (OD600 ) reached 0.5. Protein expression was induced by adding 0.2 mM isopropyl β‐D‐1‐thiogalactopyranoside (IPTG; Bioshop, Canada) at 20 °C overnight. […] The protein was purified using Ni‐NTA resin (Qiagen, Germany), according to the manufacturer's protocol. The purified protein was buffer exchanged with phosphate‐buffered saline (PBS, pH 7.4) using a centrifugal filter unit (MWCO: 10 K; Merck Millipore, USA). The protein was stored at –20 °C in PBS with 20% glycerol and 1 mM dithiothreitol (DTT).
The His‐Tag MDM2 protein was labeled using a His‐Tag Labeling Kit RED‐tris‐NTA second Generation (NanoTemper, MO‐L018) according to the manufacturer's instructions. […] The final mixtures were transferred to capillaries (NanoTemper, MO‐K022) and the samples were measured using a Monolith NT.115Pico (NanoTemper) instrument (auto LED power; medium MST power). […] The signals were represented as normalized changes in fluorescence (Fnorm ) upon ligand binding. Baseline‐corrected normalized fluorescence (DFnorm ) was obtained from Fnorm values using MO Affinity Analysis, and the dissociation constants (Kd ) were determined by curve fitting (variable slope model) using GraphPad Prism 10.

As a reminder, the AUC(0-inf) is the area under the concentration-time curve extrapolated to infinity. Low values mean low exposure, high ones high exposure. Broadly, the AUC(0-t) is exposure summed from dosing to a finite time, without extrapolation to infinity. The Cmax is the maximum level reached in the sampled fluid or tissue. The term Tmax denotes the time from dosing to the highest level. The clearance is the rate of elimination divided by the concentration. A high value points to efficient removal. A word on the half-life: it is the time in which the quantity being followed falls by half. Broadly, the bioavailability is dose-corrected exposure relative to a reference, in per cent. One may read the Kd as the concentration at which binding is half-saturated. With `COc1ccc(C2=N[C@H](c3ccc(Cl)cc3)[C@H](c3ccc(Cl)cc3)N2C(=O)N2CCN(CC(=O)NCCCCCCCCOc3cccc4c3C(=O)N(C3CCC(=O)NC3=O)C4=O)C(=O)C2)c(OC(C)C)c1` (stereo in doubt) [CL144], in data set [1] (1.0 mg kg^−1 (iv)), the AUC(0-inf) was 546 ± 39 ng·h/mL, the AUC(0-t) was 532 ± 35 ng·h/mL, the highest level (Cmax) was 1630 ± 111 ng/mL and the Tmax stood at 4.98 min. Moreover, in data set [1] (1.0 mg kg^−1 (iv)), the clearance came out at 30.6 ± 2.1 mL/min/kg, the half-life was 70.8 ± 6.6 min, the MRT last turned out to be 16.8 ± 1.2 min and the MRT inf came out at 25.2 ± 3.6 min. The Vd in data set [1] (1.0 mg kg^−1 (iv), read-out: V ss) is 0.774 ± 0.092 L/kg. In data set [1] (1 mg kg^−1, intravenous administration), the exposure AUC(0-t) came out at 532 ng·h/mL. In data set [1] (10 mg kg^−1 (po)), the AUC(0-inf) came to 256 ± 49 ng·h/mL, the AUC(0-t) is 252 ± 44 ng·h/mL, the Cmax is 106 ± 9 ng/mL and the Tmax came to 49.8 ± 17.4 min. In data set [1] (10 mg kg^−1 (po)), the bioavailability was 4.74 ± 0.83%, the half-life was 55.8 ± 15.6 min, the MRT last was 94.8 ± 21.6 min and the MRT inf stood at 100 ± 27.6 min. In addition, the “increase of ubiquitination level of MDM2” value on MDM2 [2] is given as 2.65 fold. The “biomineralization / osteogenic potency (ARS staining)” value in the data set on hBMSCs is given as “significantly enhanced biomineralization”. Also, the Kd at MDM2 [3] was found to be 1120 nM.
